Measurements taken from patent US10350284B1, “Antigen specific multi epitope-based anti-infective vaccines” (priority 2009, dated 2019).
Where “and” joins values, the source holds several entries; their conditions need not be identical. Equal entries are not always repeated. Where two headings read alike, the source gives them in different places.

How the values were obtained:
Type in all cases: cell-based, human
[1] = system: PBMC derived from naïve donors; test: Cytokine secretion (quantitative ELISA) by PBMC from naïve donors; details: for donors with positive (x>0.1 ng/ml) IL-4 secretion / donors with positive (x>0.1 ng/ml) IL-12 secretion / donors with positive (x>0.1 ng/ml) IL-2 secretion: 48 hrs stimulation, FIG. 7A
[2] = system: naïve peripheral blood mononuclear cells (PBMC); test: Proliferation ([3H] Thymidine) of PBMC from naïve donors stimulated with VXL tuberculosis vaccine candidates; details: for proliferation in donors which also manifested response to PPD: PPD positive (SI≥2) naïve PBMC, FIG. 3B; for proliferation in donors which also manifested response to PPD / positive proliferation in donors which also manifested response to TT / SI and coverage in the total 11 donors / proliferation in PPD positive versus PPD negative donors: in words; for positive proliferation in donors which also manifested response to TT: TT positive (SI≥2) naïve PBMC, FIG. 3A; for SI and coverage in the total 11 donors: in comparison with the positive controls; for proliferation in PPD positive versus PPD negative donors: naïve PBMC, FIG. 4
[3] = system: anti-VXL VCs T cell lines from naïve donors; test: FACS phenotype of anti-VXL T cell lines (CD44high, CD62Lhigh); details: FIG. 14; for CD44high activated effector cells in CD8+ / CD62Lhigh memory cells in CD8+: after the 3rd stimulation; for CD62Lhigh memory cells in CD4+ / CD44high activated effector cells in CD4+: already after the 1st stimulation
[4] = system: anti-VXL T cell lines after the 3rd stimulation; test: Intra-cellular staining (ICS) FACS for IFN-gamma and IL-4 in T cell lines; details: 6 h stimulation with peptide-loaded autologous macrophages, FIG. 15
[5] = system: autologous macrophages loaded with VXL VCs; test: Cytotoxic activity of VXL-induced T cell lines against loaded autologous macrophages (35S Methionine); details: T cell line induced by the peptide; in words
[6] = system: anti-VXL effector T-cell lines; test: IFN-gamma released by effector T cell lines during the lysis process (ELISA)
[7] = system: autologous macrophages infected with live Mtb; details: peptide-induced T cell lines from naïve donors and TB patients, FIG. 12; in words
[8] = donor #15 (FIG. 12B), naïve donor T cell line
[9] = patient #18 (FIG. 12D), Mtb patient T cell line

Row | Sequence | donors with positive (x>0.1 ng/ml) IL-4 secretion [1] [%] | donors with positive (x>0.1 ng/ml) IL-12 secretion [1] [%] | proliferation in donors which also manifested response to PPD [2] | positive proliferation in donors which also manifested response to TT [2] | donors with positive (x>0.1 ng/ml) IL-2 secretion [1] [%] | CD44high activated effector cells in CD8+ [3] [%] | CD62Lhigh memory cells in CD8+ [3] [%] | CD62Lhigh memory cells in CD4+ [3] [%] | maximal percentage of specific IFN-gamma produced by CD8+ T-cells [4] [%] | average SI [2] | SI and coverage in the total 11 donors [2] | proliferation in PPD positive versus PPD negative donors [2] | average SI ([2]; pure (>90%) peptide, naïve donors, FIG. 9A) | lysis against PPD-loaded targets [5] | IFN-gamma detected [6, 8] [µg/mL] | IFN-gamma detected [6, 9] [µg/mL] | lysis of Mtb infected macrophages [7] | IFN-gamma detected [6] | CD44high activated effector cells in CD4+ [3] [%] | IL-4 secretion ([1]; in words)
1 | MAAMWRRRPLSSALLSFGLLLGGLPLAAPPLAGA (listed as Mycobacterium tuberculosis) [VXL207, signal peptide of Protease, Tuberculosis] | 25 | 8.6 | – | – | – | – | – | – | – | – | – | – | – | – | – | – | – | – | – | –
2 | MKIRLHTLLAVLTAAPLLLAAAGCGS [VXL200] | – | – | stronger | to some extent | 25 | – | – | – | – | – | – | – | – | – | – | – | – | – | – | –
3 | MKRGLTVAVAGAAILVAGLSGCSS [VXL203] | – | 8.6 | – | to some extent | – | 79 | 17 | 39 | 8.2 | 1.8+/−0.8 | to some extent | more potent in donors which were not exposed in the past to the tuberculosis Bactria | 5.7+/−6.8 | specific lysis | 3.8 | 11 | high and specific lysis | – | – | –
4 | MKTGTATTRRRLLAVLIALALPGAAVA (listed as Mycobacterium tuberculosis) [VXL206, signal peptide of Hypothetical protein MT0 213, Tuberculosis] | – | 8.6 | – | – | – | – | – | – | – | – | – | – | – | – | – | – | – | – | – | –
5 | MLLRKGTVYVLVIRADLVNAMVAHA (listed as Mycobacterium tuberculosis) [VXL212, signal peptide of Uncharacterized protein Rv1334/MT1376 precursor, Tuberculosis] | – | 58.3 | stronger | more positive | – | – | – | – | – | – | highest SI and widest coverage | even stronger in donors with previous exposure to the tuberculosis Bactria | – | – | – | 7.5 | lower lysis levels | 5.6 µg/mL and 3.6 µg/mL | – | –
6 | MLVLLVAVLVTAVYAFVHA (listed as Mycobacterium tuberculosis) [VXL211, signal peptide of Uncharacterized protein Rv0476/MT04941 precursor, Tuberculosis] | – | 58.3 | stronger | more positive | 91.6 | 80 | 40.9 | – | 10.6 | – | highest SI and widest coverage | even stronger in donors with previous exposure to the tuberculosis Bactria | – | specific lysis | 5.9 | – | moderate lysis | 9.2 µg/mL and 7.8 µg/mL | 41 | –
7 | MRFAQPSALSRFSALTRDWFTSTFAAPTAAQA (listed as Mycobacterium tuberculosis) [VXL208, signal peptide of ATP dependent helicase putative, Tuberculosis] | 25 | – | stronger | more positive | – | 50.2 | 32.1 | 22 | – | – | highest SI and widest coverage | even stronger in donors with previous exposure to the tuberculosis Bactria | – | – | 3.6 | – | lower lysis levels | 2.6 µg/mL | 52 | some secretion of IL-4
8 | MRPSRYAPLLCAMVLALAWLSAVAG (listed as Mycobacterium tuberculosis) [VXL214, signal peptide of Putative lipoprotein IpqV precursor, Tuberculosis] | – | – | – | to some extent | – | – | – | – | – | – | – | – | – | – | – | – | – | – | – | –
9 | MTDVSRKIRAWGRRLMIGTAAAVVLPGLVGLAGGAATAGA (listed as Mycobacterium tuberculosis) [VXL201, signal peptide of Antigen 85B, Tuberculosis] | – | – | stronger | more positive | – | – | – | – | – | – | highest SI and widest coverage | even stronger in donors with previous exposure to the tuberculosis Bactria | – | – | – | 14 | high and specific lysis | 6 µg/mL and 10 µg/mL and 11.3 µg/mL | – | –
